pIC50: −log10 of the molar value. Like-named read-outs stand apart in the source and are kept apart here.
Molecular target: human ALK5 (Homo sapiens (Human), UniProt P36897)
Assay: ADP-GLO Kinases assay, inhibitory activity on ALK5
Type: biochemical
Description: The enzymatic activity of compounds of the present invention was monitored measuring the formation of ADP using the ADP-GLO Kinases assay. Following the incubation of the purified enzyme, a substrate and ATP, the produced ADP was converted into ATP, which in turn was converted into light by Ultra-Glo Luciferase. The luminescent signal positively correlated with ADP amount and kinase activity. […] The assay was performed in 384-well format and was validated using a selection of reference compounds that was tested in 11 point concentration-response curve.

[1] = purified recombinant human ALK5 2.6 nM, TGFβ1 peptide substrate, 25° C, 150 min incubation, ADP-Glo detection, read-out: ALK5 IC50

Chain of human ALK5 (P36897 80-503 limits assumed): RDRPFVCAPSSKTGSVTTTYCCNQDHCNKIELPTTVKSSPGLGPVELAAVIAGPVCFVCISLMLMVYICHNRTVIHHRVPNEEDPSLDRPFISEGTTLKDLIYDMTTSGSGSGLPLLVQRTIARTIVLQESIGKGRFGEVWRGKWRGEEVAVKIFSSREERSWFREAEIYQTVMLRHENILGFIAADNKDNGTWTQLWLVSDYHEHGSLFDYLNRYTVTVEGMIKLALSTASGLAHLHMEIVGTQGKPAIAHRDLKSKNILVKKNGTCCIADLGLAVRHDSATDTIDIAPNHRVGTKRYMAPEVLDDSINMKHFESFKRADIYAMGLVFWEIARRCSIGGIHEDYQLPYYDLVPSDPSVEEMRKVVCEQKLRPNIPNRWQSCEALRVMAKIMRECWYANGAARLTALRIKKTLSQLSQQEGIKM

For `N#CCCN1CCN(CCOc2ccc3c(Nc4cnnc(-c5cc(Cl)ccc5F)c4)ccnc3c2)CC1` [Example 71, 3-(4-{2-[(4-{[6-(5-Chloro-2-Fluorophenyl)Pyridazin-4-Yl]Amino}Quinolin-7-Yl)Oxy]Ethyl}Piperazin-1-Yl)Propanenitrile], the pIC50 [1] was greater than 9.00.

With `OCCN1CCN(CCOc2ccc3c(Nc4cnnc(-c5cc(Cl)ccc5F)c4)ccnc3c2)CC1` [Example 72, 2-(4-{2-[(4-{[6-(5-Chloro-2-Fluorophenyl)Pyridazin-4-Yl]Amino}Quinolin-7-Yl)Oxy]Ethyl}Piperazin-1-Yl)Ethan-1-Ol] the pIC50 [1] was greater than 9.00.

`CN1CCC(Oc2ccc3c(Nc4cnnc(-c5cc(Cl)ccc5F)c4)ccnc3c2)CC1` [Example 73, N-[6-(5-Chloro-2-Fluorophenyl)Pyridazin-4-Yl]-7-[(1-Methylpiperidin-4-Yl)Oxy]Quinolin-4-Amine] gave a pIC50 [1] greater than 9.00.

In the case of `Cc1nnc(-c2cc(Cl)ccc2F)cc1Nc1ccnc(NC(=O)CCN2CCNCC2)c1` [Example 74, N-(4-{[6-(5-chloro-2-fluorophenyl)-3-methylpyridazin-4-yl]amino}pyridin-2-yl)-3-(piperazin-1-yl)propanamide], the pIC50 [1] was greater than 9.00.

Work on `OCCN(CCO)CCN1CCN(CCOc2ccc3c(Nc4cnnc(-c5cc(Cl)ccc5F)c4)ccnc3c2)CC1` [Example 75, 2-{[2-(4-{2-[(4-{[6-(5-Chloro-2-Fluorophenyl)Pyridazin-4-Yl]Amino}Quinolin-7-Yl)Oxy]Ethyl}Piperazin-1-Yl)Ethyl](2-Hydroxyethyl)Amino}Ethan-1-Ol] yielded a pIC50 [1] greater than 9.00.

For `Cc1nnc(-c2cc(Cl)ccc2F)cc1Nc1ccnc(NC(=O)CCN2CCN(CCN)CC2)c1` [Example 76, 3-[4-(2-Aminoethyl)Piperazin-1-Yl]-N-(4-{[6-(5-Chloro-2-Fluorophenyl)-3-Methylpyridazin-4-Yl]Amino}Pyridin-2-Yl)Propanamide], the pIC50 [1] was greater than 9.00.

Molecule `COC(=O)NCCN1CCN(CCOc2ccc3c(Nc4cnnc(-c5cc(Cl)ccc5F)c4)ccnc3c2)CC1` [Example 77, Methyl N-[2-(4-{2-[(4-{[6-(5-Chloro-2-Fluorophenyl)Pyridazin-4-Yl]Amino}Quinolin-7-Yl)Oxy]Ethyl}Piperazin-1-Yl)Ethyl]Carbamate] has a pIC50 [1] greater than 9.00.

In the case of `Cc1nnc(-c2cc(Cl)ccc2F)cc1Nc1ccnc(NC(=O)CCN2CCOCC2)c1` [Example 78, N-(4-{[6-(5-Chloro-2-Fluorophenyl)-3-Methylpyridazin-4-Yl]Amino}Pyridin-2-Yl)-3-(Morpholin-4-Yl)Propanamide], the pIC50 [1] was greater than 9.00.

`CCOC1(CO)CN(CCC(=O)Nc2cc(Nc3cc(-c4cc(Cl)ccc4F)nnc3C)ccn2)C1` [Example 79, N-(4-{[6-(5-chloro-2-fluorophenyl)-3-methylpyridazin-4-yl]amino}pyridin-2-yl)-3-[3-ethoxy-3-(hydroxymethyl)azetidin-1-yl]propanamide] showed a pIC50 [1] greater than 9.00.

With `Cc1nnc(-c2cc(Cl)ccc2F)cc1Nc1ccnc(NC(=O)CCN2CCN(CCO)CC2)c1` [Example 80, N-(4-{[6-(5-Chloro-2-Fluorophenyl)-3-Methylpyridazin-4-Yl]Amino}Pyridin-2-Yl)-3-[4-(2-Hydroxyethyl)Piperazin-1-Yl]Propanamide] the pIC50 [1] was greater than 9.00.

`Cc1nnc(-c2cc(Cl)ccc2F)cc1Nc1ccnc2cc(OC(=O)N3CCN(CCC4CCN(C)CC4)CC3)ccc12` [Example 81, 4-{[6-(5-Chloro-2-Fluorophenyl)-3-Methylpyridazin-4-Yl]Amino}Quinolin-7-Yl 4-[2-(1-Methylpiperidin-4-Yl)Ethyl]Piperazine-1-Carboxylate] gave a pIC50 [1] greater than 9.00.

In the case of `COC(=O)NCCN1CCN(CCC(=O)Nc2cc(Nc3cc(-c4cc(Cl)ccc4F)nnc3C)ccn2)CC1` [Example 82, Methyl N-[2-(4-{2-[(4-{[6-(5-Chloro-2-Fluorophenyl)-3-Methylpyridazin-4-Yl]Amino}Pyridin-2-Yl)Carbamoyl]Ethyl}Piperazin-1-Yl)Ethyl]Carbamate], the pIC50 [1] was greater than 9.00.

`Cc1nnc(-c2cc(Cl)ccc2F)cc1Nc1ccnc(NC(=O)CCN2CCN(CCC#N)CC2)c1` [Example 84, N-(4-{[6-(5-Chloro-2-Fluorophenyl)-3-Methylpyridazin-4-Yl]Amino}Pyridin-2-Yl)-3-[4-(2-Cyanoethyl)Piperazin-1-Yl]Propanamide] gave a pIC50 [1] greater than 9.00.

With `Cc1nnc(-c2cc(Cl)ccc2F)cc1Nc1ccnc(NC(=O)N2CCN(C)CC2)c1` [Example 85, N-(4-{[6-(5-Chloro-2-Fluorophenyl)-3-Methylpyridazin-4-Yl]Amino}Pyridin-2-Yl)-4-Methylpiperazine-1-Carboxamide] the pIC50 [1] was greater than 9.00.

Molecule `COc1cc2c(Nc3cnnc(-c4cc(Cl)ccc4F)c3)ccnc2cc1OCCN1CCN(C)CC1` [Example 87, N-[6-(5-Chloro-2-Fluorophenyl)Pyridazin-4-Yl]-6-Methoxy-7-[2-(4-Methylpiperazin-1-Yl)Ethoxy]Quinolin-4-Amine] has a pIC50 [1] greater than 9.00.

Work on `Cc1nnc(-c2cc(Cl)ccc2F)cc1Nc1ccnc(NC(=O)C2CCN(C)CC2)c1` [Example 88, N-(4-{[6-(5-Chloro-2-Fluorophenyl)-3-Methylpyridazin-4-Yl]Amino}Pyridin-2-Yl)-1-Methylpiperidine-4-Carboxamide] yielded a pIC50 [1] of 8.30 to 9.00.

In the case of `CN1CCC(COc2ccc3c(Nc4cnnc(-c5cc(Cl)ccc5F)c4)ccnc3c2)CC1` [Example 89, N-[6-(5-Chloro-2-Fluorophenyl)Pyridazin-4-Yl]-7-[(1-Methylpiperidin-4-Yl)Methoxy]Quinolin-4-Amine], the pIC50 [1] was greater than 9.00.

For `CN1CCN(CCOc2ccc3c(Nc4cnnc(-c5cc(Cl)ccc5F)c4)ccnc3c2)C1` [Example 90, N-[6-(5-Chloro-2-Fluorophenyl)Pyridazin-4-Yl]-7-[2-(3-Methylimidazolidin-1-Yl)Ethoxy]Quinolin-4-Amine], the pIC50 [1] was greater than 9.00.

Work on `COC(=O)C1CN(CCC(=O)Nc2cc(Nc3cc(-c4cc(Cl)ccc4F)nnc3C)ccn2)CCN1` (stereo not drawn) [Example 91, Methyl 4-{2-[(4-{[6-(5-Chloro-2-Fluorophenyl)-3-Methylpyridazin-4-Yl]Amino}Pyridin-2-Yl)Carbamoyl]Ethyl}Piperazine-2-Carboxylate] yielded a pIC50 [1] greater than 9.00.

In the case of `CNCCNCCC(=O)Nc1cc(Nc2cc(-c3cc(Cl)ccc3F)nnc2C)ccn1` [Example 93, N-(4-{[6-(5-Chloro-2-Fluorophenyl)-3-Methylpyridazin-4-Yl]Amino}Pyridin-2-Yl)-3-{[2-(Methylamino)Ethyl]Amino}Propanamide], the pIC50 [1] was greater than 9.00.

`COC(=O)C1CN(CCC(=O)Nc2cc(Nc3cc(-c4cc(Cl)ccc4F)nnc3C)ccn2)CCN1C` (stereo not drawn) [Example 94, Methyl 4-{2-[(4-{[6-(5-Chloro-2-Fluorophenyl)-3-Methylpyridazin-4-Yl]Amino}Pyridin-2-Yl)Carbamoyl]Ethyl}-1-Methylpiperazine-2-Carboxylate] was tested, and the pIC50 [1] was greater than 9.00.

`Cc1nnc(-c2cc(Cl)ccc2F)cc1Nc1ccnc(NC(=O)CCN2CCN(C)C(C(=O)O)C2)c1` (stereo not drawn) [Example 95, 4-{2-[(4-{[6-(5-chloro-2-fluorophenyl)-3-methylpyridazin-4-yl]amino}pyridin-2-yl)carbamoyl]ethyl}-1-methylpiperazine-2-carboxylic acid] was tested, and the pIC50 [1] was greater than 9.00.

For `COC(=O)CN1CCN(CC(=O)Nc2cc(Nc3cc(-c4cc(Cl)ccc4F)nnc3C)ccn2)CC1` [Example 96, methyl 2-(4-{[(4-{[6-(5-chloro-2-fluorophenyl)-3-methylpyridazin-4-yl]amino}pyridin-2-yl)carbamoyl]methyl}piperazin-1-yl)acetate], the pIC50 [1] was greater than 9.00.

`COC(=O)CC1CN(CCC(=O)Nc2cc(Nc3cc(-c4cc(Cl)ccc4F)nnc3C)ccn2)CCN1` (stereo not drawn) [Example 97, Methyl 2-(4-{2-[(4-{[6-(5-Chloro-2-Fluorophenyl)-3-Methylpyridazin-4-Yl]Amino}Pyridin-2-Yl)Carbamoyl]Ethyl}Piperazin-2-Yl)Acetate] gave a pIC50 [1] greater than 9.00.

`COC(=O)CC1CN(CCC(=O)Nc2cc(Nc3cc(-c4cc(Cl)ccc4F)nnc3C)ccn2)CCN1C` (stereo not drawn) [Example 98, Methyl 2-(4-{2-[(4-{[6-(5-Chloro-2-Fluorophenyl)-3-Methylpyridazin-4-Yl]Amino}Pyridin-2-Yl)Carbamoyl]Ethyl}-1-Methylpiperazin-2-Yl)Acetate] gave a pIC50 [1] greater than 9.00.

`COC(=O)C1CN(C)CCN1CCC(=O)Nc1cc(Nc2cc(-c3cc(Cl)ccc3F)nnc2C)ccn1` (stereo not drawn) [Example 99, Methyl 1-{2-[(4-{[6-(5-Chloro-2-Fluorophenyl)-3-Methylpyridazin-4-Yl]Amino}Pyridin-2-Yl)Carbamoyl]Ethyl}-4-Methylpiperazine-2-Carboxylate] gave a pIC50 [1] greater than 9.00.

With `CN1CCC(CN2CCN(C(=O)Oc3ccc4c(Nc5cnnc(-c6cc(Cl)ccc6F)c5)ccnc4c3)CC2)CC1` [Example 100, 4-{[6-(5-Chloro-2-Fluorophenyl)Pyridazin-4-Yl]Amino}Quinolin-7-Yl 4-[(1-Methylpiperidin-4-Yl)Methyl]Piperazine-1-Carboxylatate] the pIC50 was 8.30 to 9.00.

`COC(=O)CC1CN(C)CCN1CCC(=O)Nc1cc(Nc2cc(-c3cc(Cl)ccc3F)nnc2C)ccn1` (stereo not drawn) [Example 101, methyl 2-(1-{2-[(4-{[6-(5-chloro-2-fluorophenyl)-3-methylpyridazin-4-yl]amino}pyridin-2-yl)carbamoyl]ethyl}-4-methylpiperazin-2-yl)acetate] gave a pIC50 [1] greater than 9.00.

With `COC(=O)CC1CNCCN1CCC(=O)Nc1cc(Nc2cc(-c3cc(Cl)ccc3F)nnc2C)ccn1` (stereo not drawn) [Example 102, Methyl 2-(1-{2-[(4-{[6-(5-Chloro-2-Fluorophenyl)-3-Methylpyridazin-4-Yl]Amino}Pyridin-2-Yl)Carbamoyl]Ethyl}Piperazin-2-Yl)Acetate] the pIC50 [1] was greater than 9.00.

In the case of `CN1CCC(N2CCN(C(=O)Oc3ccc4c(Nc5cnnc(-c6cc(Cl)ccc6F)c5)ccnc4c3)CC2)CC1` [Example 103, 4-{[6-(5-Chloro-2-Fluorophenyl)Pyridazin-4-Yl]Amino}Quinolin-7-Yl 4-(1-Methylpiperidin-4-Yl)Piperazine-1-Carboxylate], the pIC50 was 8.30 to 9.00.
